From PubChem BioAssay AID463199 (Broad Institute, 2010)
Activity calls are given as the source filed them.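 How the source made its calls: active means AC50, the dose giving half-maximal effect, exceeds a fixed cutoff for a compound that rescues yeast growth under heat; inactive means the rest, inconclusive results apart.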

What follows are molecules tested on S. cerevisiae Burl-1 ts mutant growth, BacTiter-Glo, 38.5C 24 h (assay: growth induction of Burl-1 ts yeast mutant, dose response, counter-screen for SUMOylation pathway inhibitor project, whole organism, S. cerevisiae, luminescence (AID 463199)).

Compound	AC50
O=C(NNS(=O)(=O)c1c(F)cc(F)c(Cl)c1F)C12CC3CC(CC(C3)C1)C2	> 42 µM (inactive)
O=C(O)C1C2CCCCC2=C2CCCCC2C1C(=O)c1ccccc1 (stereo not drawn)	> 42 µM (inactive)
CC1(C)CCc2cc(CN3CCN(c4ccccn4)CC3)ccc2O1	> 42 µM (inactive)
Fc1ccc(-c2n[nH]c(=S)n2CC2CCCO2)cc1 (stereo not drawn)	> 42 µM (inactive)
CN(C)c1ccc(NS(=O)(=O)c2cccc(Cl)c2)cc1	> 42 µM (inactive)
O=C(NCCNc1ccc(Cl)cc1[N+](=O)[O-])c1ccccc1F	> 42 µM (inactive)
COCCN(C(=O)C1CC1)c1nnc(-c2ccc(C)cc2)s1	> 42 µM (inactive)
Cc1sc(-n2c(C)cc(C=C3C(=O)NC(=O)NC3=O)c2C)c(C#N)c1C	> 42 µM (inactive)
COC(=O)Oc1ccc(/C=N/NS(=O)(=O)c2ccccc2)cc1OC	> 42 µM (inactive)
CCOC(=O)C1(CCOc2ccccc2)CCN(Cc2cccc(OC)c2O)CC1	> 42 µM (inactive)
COc1ccc(S(=O)(=O)NCC(=O)N(CC(=O)NCc2ccco2)Cc2ccccc2)cc1	> 42 µM (inactive)
CCOC(=O)CNC(=O)c1c(C)nn(C)c1Cl	> 42 µM (inactive)
CCOC(=O)C1C(=O)NC(SCC(=O)Nc2nccs2)=C(C#N)C1c1ccccc1OCC (stereo not drawn)	> 42 µM (inactive)
Cc1ccc(C2=NN(CC(=O)NCc3cccs3)C(=O)CC2)cc1	> 42 µM (inactive)
O=C(COC(=O)c1cccc(Br)c1)Nc1ccc2[nH]c(=O)[nH]c2c1	> 42 µM (inactive)
Cn1c(CCN2CCOCC2)nc2cc(NC(=O)COc3ccccc3)ccc21	> 42 µM (inactive)
O=S(=O)(CCN1CCCCC1)Oc1ccc(Cl)cc1Cl	> 42 µM (inactive)
Cc1c(N=Cc2cc(Br)cc(Br)c2O)cccc1C(=O)O	> 42 µM (inactive)
Fc1cccc(F)c1-c1nc(-c2ccncc2)no1	> 42 µM (inactive)
OC(COCc1cccs1)CN1CCCCCC1 (stereo not drawn)	> 42 µM (inactive)
CC(C)Oc1ccc(CCC(=O)NNC(=O)c2ccccc2C(=O)O)cc1	> 42 µM (inactive)
COCCn1c(SCC(=O)NCc2cccs2)nnc1-c1ccc(OC)cc1	> 42 µM (inactive)
COc1ccccc1-c1nnc(SCC(=O)NC2CCS(=O)(=O)C2)n1N (stereo not drawn)	> 42 µM (inactive)
Clc1ccc(CN(Cc2ccccc2)C(c2cccs2)c2nnnn2C2CCCC2)cc1 (stereo not drawn)	> 42 µM (inactive)
O=C(CN1CCc2ccccc21)NN1CC(=O)N(c2ccc(Cl)cc2)CC1=O	> 42 µM (inactive)

Compound	AC50
Cc1cc(C(F)F)n2ncc(C(=O)NCCc3ccc(Cl)cc3)c2n1	> 42 µM (inactive)
COc1ccc2c(c1)OC[C@H]1[C@H]2N2C(=O)c3ccccc3NC(=O)[C@@]2(C)[C@H]1c1ccccc1	> 42 µM (inactive)
CC1CC(C)(C)N(C(=O)CN2C(=O)CCC2=O)c2ccccc21 (stereo not drawn)	> 42 µM (inactive)
Cc1ccc(C(=O)Nc2ccc3c(c2)OCCO3)c(Cl)c1	> 42 µM (inactive)
O=C(O)C1CCCN1C(=O)c1cncc(Br)c1 (stereo not drawn)	> 42 µM (inactive)
COC(=O)C(CC(C)C)NC(=O)CNC(=O)c1ccccc1C (stereo not drawn)	> 42 µM (inactive)
Cc1cc(C)cc(N2C(=O)CC(Sc3ncn[nH]3)C2=O)c1 (stereo not drawn)	> 42 µM (inactive)
N#Cc1ccc(C23CC4(C2)[C@H](CN(Cc2ccc(C(F)(F)F)cc2)[C@@H]4c2ccccc2)C3c2ccc(C(F)(F)F)cc2)cc1 (stereo partly drawn)	> 42 µM (inactive)
Nc1nc(CSc2nnnn2-c2ccc(Cl)cc2)nc(N2CCOCC2)n1	> 42 µM (inactive)
Cc1ccc(NC(=S)NNC(=O)c2ccc(N3CCOCC3)c([N+](=O)[O-])c2)cc1C	> 42 µM (inactive)
CC(=O)Nc1cccc(C(=O)OCC(=O)NCc2ccc(F)cc2)c1	> 42 µM (inactive)
COc1ccc(OC(=O)c2ccc(Cl)cc2)c(C(C)=O)c1	> 42 µM (inactive)
CCn1c(C)c(C(C)=O)c(N2CCN(c3ccc(F)cc3)CC2)nc1=S	> 42 µM (inactive)
Cc1cccc(OCCN2CSC(=S)N(C)C2)c1	31.6 µM
CC(C)(C)c1ccc(-c2nc(C=O)c3ccccn23)cc1	> 42 µM (inactive)
COc1ccc2c(c1)[C@@]13CCC=C[C@H]1[C@@H](C2)NCC3	> 42 µM (inactive)
CC1=CC(C)(C)N2C(=O)C3(NCCc4c3[nH]c3ccccc43)c3cc(C)cc1c32 (stereo not drawn)	> 42 µM (inactive)
O=[N+]([O-])c1cc([N+](=O)[O-])c2cc3ccccc3nc2c1	> 42 µM (inactive)
COc1cc2nc(CSc3ncn[nH]3)[nH]c(=O)c2cc1OC	> 42 µM (inactive)
CN1C(=O)/C(=C/c2ccc(OCc3ccccc3F)cc2)NC1=S	> 42 µM (inactive)
Cc1cc(C)cc(C(=O)Oc2cc(C)[nH]c(=O)c2[N+](=O)[O-])c1	> 42 µM (inactive)
CCCCn1c(N)c(N(CC(C)C)C(=O)c2cc(-c3ccc(F)cc3)nc3ccccc23)c(=O)[nH]c1=O	> 42 µM (inactive)
Cc1ccc(C(C(=O)NCC2CCCO2)N(Cc2ccccc2F)C(=O)Cn2nnc(-c3cccs3)n2)cc1 (stereo not drawn)	> 42 µM (inactive)
COc1ccc(CN2CCNC(=O)C2CC(=O)NCc2cn3ccc(C)cc3n2)c(OC)c1 (stereo not drawn)	> 42 µM (inactive)
O=c1oc2cc(S(=O)(=O)NCCCO)ccc2c2ccc(S(=O)(=O)NCCCO)cc12	> 42 µM (inactive)

Compound	AC50
Cc1ccccc1C(=O)NN(C)c1nc2ccccc2nc1C(F)(F)F	> 42 µM (inactive)
CCC(C)NCCCCOc1cc(C)cc(C(C)C)c1 (stereo not drawn)	> 42 µM (inactive)
COCCCNC(=O)c1cc(C(=O)c2c(-c3c(Cl)cccc3Cl)noc2C)c[nH]1	> 42 µM (inactive)
CC(=O)/C=C/n1c(=S)oc2ccccc21	> 42 µM (inactive)
COc1ccc2c(c1)[C@H]1[C@H](CO2)[C@H](c2ccccc2)[C@]2(C)C(=O)Nc3ccc(Br)cc3C(=O)N12	> 42 µM (inactive)
CCOC(=O)Cn1c(=O)oc2cc(S(=O)(=O)NC(C)(C)CC)ccc21	> 42 µM (inactive)
Cc1ccc(S(=O)(=O)N[C@@H](Cc2ccccc2)C(=O)CCl)cc1	> 42 µM (inactive)
COc1cccc(S(=O)(=O)Nc2cccc(C(=O)N3CCOCC3)c2)c1	> 42 µM (inactive)
Cc1cc(C)nc(SCC2COc3ccccc3O2)n1 (stereo not drawn)	> 42 µM (inactive)
O=C(CCC(=O)OC(C(=O)c1ccccc1)c1ccccc1)Nc1ccccc1 (stereo not drawn)	> 21 µM (inactive)
c1ccc(CCCc2nc(-c3cccnc3)no2)cc1	> 42 µM (inactive)
CCOC(=O)C1=C(C)Nc2ncnn2C1/C=C/c1ccccc1 (stereo not drawn)	> 42 µM (inactive)
CC1CCN(S(=O)(=O)c2ccc(NC(=O)c3cccs3)cc2)CC1	> 42 µM (inactive)
CC(=O)c1ccccc1C(=O)N1CCCC(N2CCN(Cc3ccc4c(c3)OCO4)CC2)C1 (stereo not drawn)	> 42 µM (inactive)
CC(C)(c1ccccc1)c1ccc(OCCN2CCOCC2)cc1	> 42 µM (inactive)
Cc1c(C(=O)NC(=S)Nc2ccccc2N2CCCC2)cccc1[N+](=O)[O-]	> 42 µM (inactive)
O=C(Nc1ccc2[nH]c(=O)[nH]c2c1)c1c(F)c(F)c(F)c(F)c1F	25.8 µM
COc1ccc(C2C(C(C)=O)=C(O)C(=O)N2CCO)c(OC)c1 (stereo not drawn)	> 42 µM (inactive)
COc1ccc(CN2CC(=O)N(c3ccccc3C)C2=S)cc1OC	> 42 µM (inactive)
O=C(O)CSc1ncnc2sc(-c3ccccc3)cc12	> 42 µM (inactive)
Cc1c(=O)n(OCc2ccccn2)c2ccccc2[n+]1[O-]	> 42 µM (inactive)
COc1ccccc1-c1sc2ccccc2c1-c1ccc2c(c1)OCO2	> 42 µM (inactive)
CCCCC(O)(CCCC)C(=O)NN(C(=O)OC)c1ccc(C)cc1	> 42 µM (inactive)
CC1(C)CCC(=O)N2CC[C@H]3C[C@H](OC(=O)Nc4ccc(Br)cc4)C[C@@H]1[C@H]32	> 42 µM (inactive)
C=CCn1cc(C(C)=O)c(=O)[nH]c1=O	> 42 µM (inactive)

Compound	AC50
CS(=O)(=O)N(CC(=O)N1CCN(c2ccccc2F)CC1)C1CCCCC1	> 42 µM (inactive)
CCOC(=O)c1sc2ncnc(N3CCN(c4ccc(OC)cc4)CC3)c2c1C	> 42 µM (inactive)
COc1ccc(N2CCN(C(c3cccs3)C(C)NS(C)(=O)=O)CC2)cc1 (stereo not drawn)	> 42 µM (inactive)
CCOC(=O)c1ccc(NC(=O)c2nc[nH]c2C(=O)N2CCc3ccccc3C2)cc1	> 42 µM (inactive)
COc1ccc(CN2C(=O)C(=O)N(CC(N)=O)C2=O)cc1	> 42 µM (inactive)
CCOc1ccc(-n2cc(C(=O)NCCOC)c3cc(OC)c(OC)cc3c2=O)cc1	> 42 µM (inactive)
Cc1sc2ncnc(Nc3ccccc3)c2c1C	> 42 µM (inactive)
Cc1cc2nc(CCl)cc(=O)n2[nH]1	> 42 µM (inactive)
O=C(CCSc1ccccc1)Nc1ncccn1	> 42 µM (inactive)
O=C(C1CCCN(S(=O)(=O)c2cnc[nH]2)C1)N1CCN(c2ccc(Cl)cc2)CC1 (stereo not drawn)	> 42 µM (inactive)
Fc1cccc(Nc2ncnc3sccc23)c1	> 42 µM (inactive)
N/C(=N\OC(=O)CCC1CCCC1)c1ccc([N+](=O)[O-])cc1	> 42 µM (inactive)
CC1CCCC(C)N1CCCNC(=O)c1csc2c1CCCCC2 (stereo not drawn)	> 42 µM (inactive)
Cn1c(CN2CCOCC2)nnc1SCC(N)=O	> 42 µM (inactive)
OCC[C@@H]1C[C@H](O)[C@@H](O)[C@]2(CCc3ccccc3CO2)O1	> 42 µM (inactive)
CC(C)C/C(=N/O)c1c[nH]c2ccccc12	> 42 µM (inactive)
C/C(O)=C(\N=Nc1cc(C)ccc1O)C(N)=O	> 42 µM (inactive)
CC(=O)c1ccc(C(=O)N2CCCC(N3CCN(c4ccc(F)cc4)CC3)C2)s1 (stereo not drawn)	> 42 µM (inactive)
O=C(Nc1cccnc1Cl)c1cc2ccccc2o1	> 42 µM (inactive)
COc1ccc(C2C(C(=O)Nc3cc(OC)c(OC)c(OC)c3)c3ccccc3C(=O)N2C)cc1 (stereo not drawn)	> 42 µM (inactive)
COc1ccc(/C=C2\SC(=S)N(CCCC(=O)Nc3cc(C)on3)C2=O)cc1OC	> 42 µM (inactive)
COc1cccc(C(=O)NCc2ccc(-c3nc4ccccc4s3)cc2)c1	> 42 µM (inactive)
COc1ccc(-c2csc(Nc3cc(C)ccn3)n2)cc1C	> 42 µM (inactive)
